The record followed here is US20250221998A1, “DISCOVERY OF COVALENT EGFR INHIBITOR THROUGH CYSTEINE 775” (Dana-Farber Cancer Institute, Inc., priority 2022, published 2025).

Type in all cases: cell-based, murine
The target of experiment [1] is EGFR mutant L858R Ba/F3 cells (Homo sapiens, UniProt P00533, L858R, cells depend on it). The experiment in a line: Ba/F3 cell proliferation (Cell Titer Glo), EGFR L858R. Conditions: 72 hours exposure, read-out: L858R BaF3 (μM), inhibitory activity against EGFR mutants. The gist of the method:
(§1)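 Ba/F3 cells stably expressing retrovirally transduced EGFR L858R, L858R/C797S or L858R/C775S, puromycin-selected. Compound exposure 72 hours in triplicate; viability by Cell Titer Glo ATP luminescence.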

Experiment [2] concerns the target EGFR L858R/C775S Ba/F3 cells (Homo sapiens, UniProt P00533, C775S/L858R, cells depend on it). The experiment can be described thus: Ba/F3 cell proliferation (Cell Titer Glo), EGFR L858R/C775S. Conditions: 72 hours exposure, read-out: L858R/C775S (μM), inhibitory activity against EGFR mutants. The source says:
The EGFR mutant L858R Ba/F3 cells have been previously described (Zhou, W., et al. Nature 462, 2009, 1070-1074). The EGFR C797S and C775S mutations were introduced via site directed mutagenesis using the Quick Change Site-Directed Mutagenesis kit into a vector containing EGFR L858R mutation (Stratagene; La Jolla, CA) according to the manufacturer's instructions. All constructs were confirmed by DNA sequencing. The constructs were then shuttled into the retroviral vector JP1540 by either using the Cre-recombination system (Agilent Technologies, Santa Clara, CA) or the In-fusion HD Cloning kit (Takara Bio USA, Inc.; Mountain view, CA). Ba/F3 cells were then infected with retrovirus per standard protocols, as described previously (Zhou, et al, Nature 2009). Stable clones were obtained by selection in puromycin (2 ug/ml). All BaF/3 mutant cells were maintained in RPMI 1640 (Cellgro; Mediatech Inc., Herndon, CA) supplemented with 10% FBS, 100 units/mL penicillin, 100 units/mL streptomycin.
Growth and inhibition of growth was assessed by the Cell Titer Glo assay (Promega, Madison, WI) and was performed according to the manufacturer's instructions. The Cell Titer Glo assay is a luminescence-based method used to determine the number of viable cells based on quantitation of the ATP present, which is directly proportional to the amount of metabolically active cells present. Ba/F3 cells of different EGFR genotypes were exposed to compounds for 72 hours and the number of cells used per experiment was determined empirically as has been previously established (Zhou, et al., Nature 2009). All experimental points were set up in triplicates in 384-well plates. […] The curves were fitted using a non-linear regression model with a sigmoidal dose response.
For inhibitory activity against EGFR mutants, the following designations are used: ≤0·25 μM=A, 0·25 μM˜0.5 μM=B, 0.5 μM˜2.5 μM=C, ≥2.5 μM=D.

Experiment [3] concerns the target EGFR L858R/C797S Ba/F3 cells (Homo sapiens, UniProt P00533, C797S/L858R, cells depend on it). The experiment can be described thus: Ba/F3 cell proliferation (Cell Titer Glo), EGFR L858R/C797S. Conditions: 72 hours exposure, read-out: L858R/C797S (μM), inhibitory activity against EGFR mutants. The gist of the method:
as §1

EGFR mutant L858R Ba/F3 cells, sequence (P00533 whole entry L858R): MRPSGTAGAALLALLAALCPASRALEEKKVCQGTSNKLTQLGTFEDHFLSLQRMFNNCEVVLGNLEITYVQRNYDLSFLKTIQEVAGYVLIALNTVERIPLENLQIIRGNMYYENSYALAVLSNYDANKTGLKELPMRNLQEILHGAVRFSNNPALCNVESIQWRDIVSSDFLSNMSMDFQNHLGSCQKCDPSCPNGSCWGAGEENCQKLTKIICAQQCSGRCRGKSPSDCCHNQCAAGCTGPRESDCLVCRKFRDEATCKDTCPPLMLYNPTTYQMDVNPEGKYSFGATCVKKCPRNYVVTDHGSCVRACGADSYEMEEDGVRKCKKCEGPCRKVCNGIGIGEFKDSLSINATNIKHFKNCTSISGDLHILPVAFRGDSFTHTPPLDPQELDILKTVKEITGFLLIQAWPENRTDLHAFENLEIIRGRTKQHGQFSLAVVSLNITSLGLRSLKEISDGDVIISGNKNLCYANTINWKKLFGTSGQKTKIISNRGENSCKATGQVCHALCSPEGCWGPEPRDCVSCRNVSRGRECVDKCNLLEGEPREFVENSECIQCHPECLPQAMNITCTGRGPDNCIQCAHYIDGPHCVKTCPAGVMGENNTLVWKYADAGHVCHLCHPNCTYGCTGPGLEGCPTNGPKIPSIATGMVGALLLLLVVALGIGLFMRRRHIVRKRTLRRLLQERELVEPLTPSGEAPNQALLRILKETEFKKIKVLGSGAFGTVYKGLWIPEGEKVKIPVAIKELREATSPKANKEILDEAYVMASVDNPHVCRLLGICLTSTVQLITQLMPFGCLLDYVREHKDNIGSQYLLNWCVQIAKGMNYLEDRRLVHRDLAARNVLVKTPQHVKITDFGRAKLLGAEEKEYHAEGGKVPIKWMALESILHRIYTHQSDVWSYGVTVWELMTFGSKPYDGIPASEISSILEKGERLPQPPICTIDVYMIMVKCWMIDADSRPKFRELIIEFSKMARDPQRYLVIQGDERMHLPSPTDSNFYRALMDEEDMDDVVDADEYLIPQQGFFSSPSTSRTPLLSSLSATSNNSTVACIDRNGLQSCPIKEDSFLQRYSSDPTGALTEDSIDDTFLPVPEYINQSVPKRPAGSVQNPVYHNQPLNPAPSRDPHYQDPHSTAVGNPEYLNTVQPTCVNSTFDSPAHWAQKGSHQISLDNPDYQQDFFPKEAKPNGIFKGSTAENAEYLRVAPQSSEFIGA
EGFR L858R/C775S Ba/F3 cells, sequence (P00533 whole entry C775S/L858R, the tested form may be a part): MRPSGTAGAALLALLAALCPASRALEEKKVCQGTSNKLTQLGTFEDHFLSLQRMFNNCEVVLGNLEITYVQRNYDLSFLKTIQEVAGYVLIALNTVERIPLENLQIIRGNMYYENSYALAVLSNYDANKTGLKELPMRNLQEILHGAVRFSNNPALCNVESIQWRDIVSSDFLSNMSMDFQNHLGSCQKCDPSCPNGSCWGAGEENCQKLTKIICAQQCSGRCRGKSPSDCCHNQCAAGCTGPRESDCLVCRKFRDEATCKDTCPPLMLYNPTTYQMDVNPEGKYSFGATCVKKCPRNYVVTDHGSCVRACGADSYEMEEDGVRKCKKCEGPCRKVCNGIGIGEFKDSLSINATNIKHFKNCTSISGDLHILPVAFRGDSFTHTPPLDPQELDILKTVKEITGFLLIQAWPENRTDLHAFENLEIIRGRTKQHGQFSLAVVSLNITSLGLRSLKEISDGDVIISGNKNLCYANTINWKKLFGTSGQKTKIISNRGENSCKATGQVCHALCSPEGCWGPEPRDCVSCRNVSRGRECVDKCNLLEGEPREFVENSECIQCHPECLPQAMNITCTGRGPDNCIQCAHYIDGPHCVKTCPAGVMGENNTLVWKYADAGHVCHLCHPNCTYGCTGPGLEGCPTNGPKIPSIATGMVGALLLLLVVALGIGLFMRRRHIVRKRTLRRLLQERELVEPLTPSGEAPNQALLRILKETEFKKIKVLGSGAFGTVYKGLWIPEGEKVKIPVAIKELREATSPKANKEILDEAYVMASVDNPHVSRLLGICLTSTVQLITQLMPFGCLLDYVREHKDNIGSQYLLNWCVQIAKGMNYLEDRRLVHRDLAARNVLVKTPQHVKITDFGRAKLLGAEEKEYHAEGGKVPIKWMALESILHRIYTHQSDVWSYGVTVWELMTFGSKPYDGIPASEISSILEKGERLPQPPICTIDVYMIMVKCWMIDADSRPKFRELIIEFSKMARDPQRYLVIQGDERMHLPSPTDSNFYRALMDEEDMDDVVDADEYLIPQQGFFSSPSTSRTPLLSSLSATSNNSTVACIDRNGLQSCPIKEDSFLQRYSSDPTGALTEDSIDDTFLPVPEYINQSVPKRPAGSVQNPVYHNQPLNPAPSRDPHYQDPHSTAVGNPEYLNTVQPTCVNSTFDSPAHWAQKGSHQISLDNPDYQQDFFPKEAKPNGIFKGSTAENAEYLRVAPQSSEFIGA
EGFR L858R/C797S Ba/F3 cells, sequence (P00533 whole entry C797S/L858R): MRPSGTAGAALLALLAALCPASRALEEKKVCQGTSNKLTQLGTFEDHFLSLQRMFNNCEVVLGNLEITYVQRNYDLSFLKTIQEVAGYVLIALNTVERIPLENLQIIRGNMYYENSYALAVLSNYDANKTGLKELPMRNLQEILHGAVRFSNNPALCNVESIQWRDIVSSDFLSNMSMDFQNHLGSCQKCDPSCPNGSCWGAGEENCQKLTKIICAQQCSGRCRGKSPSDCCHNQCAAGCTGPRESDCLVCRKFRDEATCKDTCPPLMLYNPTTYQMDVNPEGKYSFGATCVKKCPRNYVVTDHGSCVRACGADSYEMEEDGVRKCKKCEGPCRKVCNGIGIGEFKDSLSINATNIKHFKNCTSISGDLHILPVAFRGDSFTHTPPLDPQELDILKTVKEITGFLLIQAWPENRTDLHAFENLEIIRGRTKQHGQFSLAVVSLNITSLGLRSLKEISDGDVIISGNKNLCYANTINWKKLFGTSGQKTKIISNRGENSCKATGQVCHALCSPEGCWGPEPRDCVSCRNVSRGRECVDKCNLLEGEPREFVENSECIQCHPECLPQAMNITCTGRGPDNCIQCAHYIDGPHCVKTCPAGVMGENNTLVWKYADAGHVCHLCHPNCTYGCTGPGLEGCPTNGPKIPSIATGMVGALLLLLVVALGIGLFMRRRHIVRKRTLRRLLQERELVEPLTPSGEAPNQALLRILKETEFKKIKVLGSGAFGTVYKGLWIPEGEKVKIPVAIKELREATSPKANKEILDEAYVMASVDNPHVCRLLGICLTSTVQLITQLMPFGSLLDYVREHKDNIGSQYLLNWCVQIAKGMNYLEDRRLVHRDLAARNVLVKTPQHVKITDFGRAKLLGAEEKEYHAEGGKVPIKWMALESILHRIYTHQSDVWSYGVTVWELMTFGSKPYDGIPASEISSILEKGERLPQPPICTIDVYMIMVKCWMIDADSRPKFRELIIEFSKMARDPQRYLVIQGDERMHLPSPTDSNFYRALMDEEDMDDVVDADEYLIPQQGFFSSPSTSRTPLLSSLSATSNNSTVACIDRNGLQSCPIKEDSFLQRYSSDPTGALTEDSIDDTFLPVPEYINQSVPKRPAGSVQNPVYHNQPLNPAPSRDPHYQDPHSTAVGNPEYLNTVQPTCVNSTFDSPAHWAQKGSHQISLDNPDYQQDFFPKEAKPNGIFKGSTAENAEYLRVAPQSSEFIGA

Take `C=CC(=O)Nc1ccccc1Oc1cc2cnc(Nc3ccc(N4CCN(C)CC4)nc3)nc2n(C)c1=O` [Compound 005]: the GI50 is 0.5 to 2.5 µM in experiment [1], ≥ 2.5 µM in experiment [2] and ≥ 2.5 µM in experiment [3].

On to `C#CC(=O)Nc1ccccc1Oc1cc2cnc(Nc3ccc(N4CCN(C)CC4)cc3)nc2n(C)c1=O` [Compound 006, N-[2-[8-methyl-2-[4-(4-methylpiperazin-1-yl)anilino]-7-oxo-pyrido[2,3-d]pyrimidin-6-yl]oxyphenyl]prop-2-ynamide], for which the GI50 in experiment [1] is 0.25 to 0.5 µM; in experiment [2], ≥ 2.5 µM; in experiment [3] it was ≥ 2.5 µM.

Turning to `C=CC(=O)Nc1ccccc1Oc1cc2cnc(Nc3ccc(N4CCN(C)CC4)cc3)nc2n(C)c1=O` [Compound 002, N-[2-[8-methyl-2-[4-(4-methylpiperazin-1-yl)anilino]-7-oxo-pyrido[2,3-d]pyrimidin-6-yl]oxyphenyl]prop-2-enamide], the GI50 was ≤ 0.25 µM in experiment [1], ≥ 2.5 µM in experiment [2] and 0.25 to 0.5 µM in experiment [3].

Consider `C=CC(=O)Nc1ccccc1Oc1cc2cnc(Nc3ccc(N4CCN(C)CC4)cc3)nc2n(C2CCCN(C(C)=O)C2)c1=O` (stereo not drawn) [Compound 007, N-[2-[8-(1-acetyl-3-piperidyl)-2-[4-(4-methylpiperazin-1-yl)anilino]-7-oxo-pyrido[2,3-d]pyrimidin-6-yl]oxyphenyl]prop-2-enamide], for which the results for the GI50 in experiment [1], in experiment [2] and in experiment [3] were 0.25 to 0.5 µM, ≥ 2.5 µM and ≥ 2.5 µM, respectively.

`C=CC(=O)Nc1ccccc1Cc1cc2cnc(Nc3ccc(N4CCN(C)CC4)cc3)nc2n(C)c1=O` [Compound 001, N-[2-[[8-methyl-2-[4-(4-methylpiperazin-1-yl)anilino]-7-oxo-pyrido[2,3-d]pyrimidin-6-yl]methyl]phenyl]prop-2-enamide]: the values for the GI50 in experiment [1], in experiment [2] and in experiment [3] were 0.25 to 0.5 µM, 0.5 to 2.5 µM and 0.5 to 2.5 µM, respectively.

`C=CC(=O)N1CCN(c2cc3cnc(Nc4ccc(N5CCN(C)CC5)cc4)nc3n(C)c2=O)c2ccccc21` [Compound 010, 8-methyl-2-[4-(4-methylpiperazin-1-yl)anilino]-6-(4-prop-2-enoyl-2,3-dihydroquinoxalin-1-yl)pyrido[2,3-d]pyrimidin-7-one]: the GI50 in experiment [1] is ≤ 0.25 µM; in experiment [2] it was ≥ 2.5 µM; in experiment [3] it was ≤ 0.25 µM.

With `C=CC(=O)Nc1ccccc1Oc1cc2cnc(Nc3ccc(N4CCN(C)CC4)cc3)nc2n(-c2cccc(NC(C)=O)c2)c1=O` [Compound 008], the GI50 in experiment [1] is 0.5 to 2.5 µM; in experiment [2], ≥ 2.5 µM; in experiment [3], ≥ 2.5 µM.

Regarding `C=CC(=O)N1CCN(c2cc3cnc(Nc4ccc(N5CCN(C)CC5)cc4)nc3n(C)c2=O)CC1` [Compound 009, 8-methyl-2-[4-(4-methylpiperazin-1-yl)anilino]-6-(4-prop-2-enoylpiperazin-1-yl)pyrido[2,3-d]pyrimidin-7-one], the GI50 in experiment [1], in experiment [2] and in experiment [3] was ≥ 2.5 µM in each case.

As for `C=CC(=O)Nc1ccccc1Oc1cc2cnc(Nc3ccc(N4CCN(C)CC4)cc3OC)nc2n(C)c1=O` [Compound 004], the figures for the GI50 in experiment [1], in experiment [2] and in experiment [3] were 0.25 to 0.5 µM, ≥ 2.5 µM and 0.5 to 2.5 µM, respectively.

`C=CC(=O)N1CCc2cccc(Oc3cc4cnc(Nc5ccc(N6CCN(C)CC6)cc5)nc4n(C)c3=O)c21` [Compound 003]: the GI50 in experiment [1] is 0.5 to 2.5 µM; in experiment [2] it was 0.5 to 2.5 µM; in experiment [3], ≥ 2.5 µM.
